We go through five molecules from patent US20260297035A1, “PROTEIN KINASE INHIBITORS AND USES THEREOF” (DELiver Therapeutics, Inc., priority 2023, published 2026).

Each structure is given as a SMILES string. pIC50: −log10 of the molar value. Where two headings read alike, the source gives them in different places.

The target in one data set is ABL1(wt) (Homo sapiens, UniProt P00519). The experiment in a line: Z′-LYTE assay (labeled peptide cleavage), ABL1(wt). Format: biochemical. An excerpt: (§1) This Example describes a cell-free assay utilized to identify candidate compounds that bind to and inhibit protein kinase (PK) and PK variants. One assay is referred to as a “Z′-LYTE assay” and is an example of a labeled peptide cleavage assay. The fluorescence-based assay relies on the differential sensitivity of a small, dual-end-labelled peptide to cleavage by a protease, dependent on the phosphorylation state of the peptide (FIG. 1). The peptide substrate is end-labelled with two distinct fluorophores that comprise a Fluorescence Resonance Energy Transfer (FRET) pair.
(§2) In the absence of inhibitor, the kinase transfers the gamma-phosphate from ATP to the single, unique tyrosine, serine or threonine in the synthetic FRET peptide. The reaction conditions are titrated such that 10-40% of the peptide substrate is phosphorylated. In a second reaction, a site-specific protease that only recognizes and cleaves the non-phosphorylated FRET peptide is added. Cleavage interferes with FRET between the donor (i.e., coumarin) and the acceptor (i.e., fluorescein) fluorophores on the FRET-peptide substrate, unlike the phosphorylated, uncleaved peptide.
(§3) The Test Compounds are screened in 1% DMSO (final) in the well.
(§4) All Peptide/Kinase Mixtures are diluted to a 2× working concentration in the appropriate Kinase Buffer. The 2×ABL1 polypeptide/Tyr 02 substrate peptide mixture is prepared in 50 mM HEPES pH 7.5, 0.01% BRIJ-35, 10 mM MgCl2, 1 mM EGTA. The final 10 μL Kinase Reaction contains 0.3-1.2 ng ABL1 (or 1.36-6 ng ABL1(T315I)) and 2 μM Tyr 02 in 50 mM HEPES, pH 7.5, 0.01% BRIJ-35, 10 mM MgCl2, 1 mM EGTA. After the 1-hour Kinase Reaction incubation, 5 μL of a 1:128 dilution of Development Reagent A is added. The ABL1(wt) polypeptide utilized for the assay described in this Example was the “isoahABL1(wt)” polypeptide described herein (SEQ ID NO:4), which is referred to as “ABL1” in Table 1 and “ABL1(wt)” or “WT” in Table 3 of this Example. The ABL1 variant polypeptides utilized contained the same polypeptide as the “isoahABL1(wt)” polypeptide except that each contained one corresponding amino acid substitution chosen from E255K, F317I, F317L, G250E, T315I or Y253F. […]
(§5) All ATP Solutions are diluted to a 4× working concentration in Kinase Buffer (50 mM HEPES, pH 7.5, 0.01% BRIJ-35, 10 mM MgCl2, 1 mM EGTA). The ATP Km apparent (Km app) is previously determined using a Z′-LYTE assay.
(§6) Bar-coded Corning, low volume NBS, black 384-well plate (Corning Cat. #4514) • 1. […] Read on fluorescence plate reader and analyze the data
A known inhibitor control standard curve, 10-point titration, is run for each individual kinase on the same plate as the kinase to ensure the kinase is inhibited within an expected IC50 range previously determined. […]

The next data set addresses T1, ABL1 T315I (Homo sapiens, UniProt P00519, T315I).
T1 construct: The ABL1 variant polypeptides utilized contained the same polypeptide as the “isoahABL1(wt)” polypeptide except that each contained one corresponding amino acid substitution
The data set is described as follows: Z′-LYTE assay, ABL1 T315I. Format: biochemical.
From the text: as §1, §2, §3, §4, §5, §6

The subject of the next data set is K562. The experiment in a line: In vitro cytotoxic activity (CellTiterGlo), K562 (CML). It counts as cell-based. Conditions: Homo sapiens, 48-hours, read-out: K562 LD50. Here is the method:
(§7) Non-metabolized targeted toxicity, or general toxicity, of compounds was assessed by treating a panel of selected cell lines in culture with a dilution series of test compounds and the lethal dose that will kill half of the cells (i.e., the LD50) was determined. Compounds herein were assayed against a panel of cytokine-independent Philadelphia chromosome (BCR-ABL1 translocation) positive (Ph+) leukemia and lymphoma cell lines along with several control cell lines that were ABL1-independent. The panel included murine cell lines BaF3-wildtype (wt), BaF3-mutants (BaF3-wt cells engineered to be reliant on various kinase domain mutations with the BCR-ABL1 fusion protein), and various ALL and CML human cell lines, including SD-1, TOM-1, NALM-21, K562, Jeko-1, BV173, and KCL-22.
(§8) To test the cytotoxic activity of compounds herein, 1.6E4 cells were plated in 96-well plates at a final volume of 135 μL per well. Compounds were then added to the wells. In general, final concentrations of compounds started at a maximum concentration of […] and were diluted by half-log concentrations down to a final concentration of 0.316 nM. However, different cell lines required varying drug concentration ranges for optimal LD50 calculations. To create half-log dilutions, 40 mM DMSO solutions of compounds were diluted in half-log iterations to generate 400× starting concentration of compounds in DMSO. The 400× compound solutions were then diluted by 40-fold by adding 5 μL of 400× DMSO stock to 195 μL cell culture media, generating 10× drug concentrations in cell culture media. Then 15 μL of the 10× drug solutions were added to the 135 μL volume of cell suspension, resulting in 1× final drug concentrations with 0.25% DMSO in all wells. 48-hours after adding compounds, cells were measured for relative viability to generate cytotoxicity curves associated with the varying concentrations of compounds. […] LD50 values were measured by normalizing luminescence intensity to the lowest drug concentration. GraphPad Prism was used to plot and calculate LD50 values from the cytotoxic kill curves. Curves were fit to a non-linear regression model, with compound concentration vs. response and variable slope (four parameters).
For orientation: In ATP-based viability assays light output follows the ATP content of the culture.

The subject of a further data set is NALM-21. The experiment in a line: In vitro cytotoxic activity (CellTiterGlo), NALM-21 (ALL). It counts as cell-based. Conditions: Homo sapiens; 48-hours; read-out: NALM-21 LD50. Here is the method:
as §7, §8

Data set [1] in a line: non-GLP multi-dose toxicity study (dose escalation, daily IP injection). It counts as in vivo, mouse (6-week-old Balb/c females). The note with it: mice; for tolerability: daily IP. As for the experimental part: An initial non-GLP multi-dose toxicity study of Cmpd11 and Cmpd66 was performed, which included a comparison to COM1 and COM3 clinical compounds. […] Body weights were recorded 2× weekly for healthy mice followed by weekly in the recovery phase. Blood draws were taken, retro-orbitally, every other week (for a total of three blood draws per group) to determine the plasma levels of compounds throughout the duration of the study (unless mice were euthanized prior to completion of the 28-day dosing period). […] Any animals showing more than 9% weight loss were weighed every day and animals were euthanized after a weight loss of 15% or more or evidence of high distress (e.g., listless, hunched posture, high grimace score). Also, plasma samples were drawn at euthanasia. Control groups included vehicle only and no manipulation.
A summary of the study is illustrated in FIG. 14. There are six groups with 90 mice total and following is an overview of groups for the study.
The following are criteria for dose escalation and staggering of group starting points. Animals in each group are monitored after the initial dose for 3-4 days, and if there is no observed dose-limiting toxicity (DLT), then a separate cohort of naïve animals are administered the next higher dose level. Note that each cohort of animals receives the same drug and drug dose for the duration of the 28-day dosing period unless euthanasia is required. Animals in the second, dose-escalated group, are then monitored for 3-4 days, and if there is no observed DLT, animals from a fresh cohort are administered the next higher dose level, while continuing with the former cohorts up to 5 dose levels total. Animals in each cohort then are monitored after the third dose for 7 days, and if there is no observed DLT, then animals are administered the next higher doses. If DLT is observed during a monitoring period for any dose level, a subsequent dose is reduced by a level that is intermediate between the highest tolerated level tested and the minimum toxic level tested.

With `CNC(=O)c1ccc(C(=O)Nc2cc(Nc3ncc4cccc(-c5ccc(F)cc5OC(C)C)c4n3)ccc2C)cc1` [Cmpd10], the pIC50 at ABL1(wt) (class by IC50 values in Table 5, read-out: inhibitor class of ABL1(wt) according to IC50) is over 7.70; on ABL1(wt) (test compounds, Z′-LYTE, read-out: IC50 values for test compounds, ABL1(wt)), 7.95; at ABL1 T315I (class by IC50 values in Table 5, read-out: inhibitor class of ABL(T315I) according to IC50) it was over 7.70; on ABL1 T315I (test compounds, Z′-LYTE, read-out: IC50 values for test compounds, ABL1(T315I)), 8.41.

As to `Cc1ccc(Nc2ncc3cccc(-c4ccc(F)cc4OC(C)C)c3n2)cc1NC(=O)c1ccc(C(=O)N2CCN(C)CC2)cc1` [Cmpd44, N-(5-((8-(4-fluoro-2-isopropoxyphenyl)quinazolin-2-yl)amino)-2-methylphenyl)-4-(4-methylpiperazine-1-carbonyl)benzamide], the pIC50 with K562 is 6.52; in the data set with NALM-21, 6.55.

Regarding `Cc1ccc(Nc2ncc3cccc(-c4ccc(F)cc4OC(C)C)c3n2)cc1NC(=O)CN1CCN(C)CC1` [Cmpd58, N-(5-((8-(4-fluoro-2-isopropoxyphenyl)quinazolin-2-yl)amino)-2-methylphenyl)-2-(4-methylpiperazin-1-yl)acetamide], the pIC50 was 6.91 with K562 and 6.87 in the data set on NALM-21.

Consider `Cc1ccc(Nc2ncc3cccc(-c4ccc(F)cc4OC(C)C)c3n2)cc1NC(=O)C1CCN(C)CC1` [Cmpd66, N-(5-((8-(4-fluoro-2-isopropoxyphenyl)quinazolin-2-yl)amino)-2-methylphenyl)-1-methylpiperidine-4-carboxamide], for which the pIC50 is 6.85 in the data set with K562 and 6.88 in the data set with NALM-21. For the same molecule, in data set [1] (at doses required to reach the in vitro K562-Luc EC50 plasma levels in vivo, early results), the “tolerability relative to COM1” value is given as “more tolerable than COM1”. Besides, the tolerability entry in data set [1] (1.5 mg/kg, through day 24) was “well tolerated”; in data set [1] (4.5 mg/kg, at day 21), “well tolerated”; in data set [1] (maximum dose of 18 mg/kg, at day 14) it was “well tolerated”.

Regarding `Cc1ccc(C(=O)Nc2ccc(CN3CCN(C)CC3)c(C(F)(F)F)c2)cc1C#Cc1cnc2cccnn12` [ponatinib], the results for the pIC50 with K562 and with NALM-21 were 5.49 and 5.44, respectively.
